This passage reports IC50 results from patent US9012651B2, “TRPV3 modulators” (AbbVie Inc., priority 2011, dated 2015).

SMILES strings stand for the structures. pIC50: −log10 of the molar value.

Sequence of human TRPV3 receptors (Q8NET8 whole entry): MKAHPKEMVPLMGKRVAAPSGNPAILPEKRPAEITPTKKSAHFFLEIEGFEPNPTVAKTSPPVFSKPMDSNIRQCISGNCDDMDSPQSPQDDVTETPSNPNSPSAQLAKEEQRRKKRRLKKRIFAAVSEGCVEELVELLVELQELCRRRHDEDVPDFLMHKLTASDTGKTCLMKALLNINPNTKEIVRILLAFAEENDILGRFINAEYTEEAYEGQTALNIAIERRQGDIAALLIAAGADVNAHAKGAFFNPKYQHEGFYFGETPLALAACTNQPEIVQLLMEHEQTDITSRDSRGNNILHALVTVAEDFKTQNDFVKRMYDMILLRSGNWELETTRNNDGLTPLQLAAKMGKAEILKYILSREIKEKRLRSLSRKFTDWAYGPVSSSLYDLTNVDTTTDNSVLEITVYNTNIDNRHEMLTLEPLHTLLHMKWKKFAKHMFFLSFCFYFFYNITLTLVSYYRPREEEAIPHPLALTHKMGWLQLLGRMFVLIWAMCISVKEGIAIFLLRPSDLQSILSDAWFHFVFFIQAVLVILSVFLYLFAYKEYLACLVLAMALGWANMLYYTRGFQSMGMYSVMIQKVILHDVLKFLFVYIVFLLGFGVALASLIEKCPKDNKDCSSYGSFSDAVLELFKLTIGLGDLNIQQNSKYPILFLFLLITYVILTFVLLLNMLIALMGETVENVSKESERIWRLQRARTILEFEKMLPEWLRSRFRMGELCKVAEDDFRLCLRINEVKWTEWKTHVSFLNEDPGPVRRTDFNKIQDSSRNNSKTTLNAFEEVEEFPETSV

This assay has as its target human TRPV3 receptors (Homo sapiens (Human), UniProt Q8NET8). Briefly: Calcium flux assay (FLIPR TETRA), inhibition of the 2-APB response. The class given is cell-based. Conditions: recombinant HEK293 cells stably expressing TRPV3, Calcium-4 dye, 2-APB at its EC80. A digest of the protocol: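 HEK293 cells stably expressing human and mouse TRPV3, plated the day before and dye-loaded 90-120 min in the dark, read on FLIPR Tetra. Peak fluorescence increase over baseline was expressed as percent of the maximal 2-APB response without compound.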
Consider `CC(C)[C@H](CO)NCc1nc(N2CCc3cccc(F)c3C2)ccc1F` [Example 99, (2R)-2-({[3-fluoro-6-(8-fluoro-3,4-dihydroisoquinolin-2(1H)-yl)pyridin-2-yl]methyl}amino)-3-methylbutan-1-ol], for which the negative-log IC50 (pIC50) is 6.85.
As for `CC(C)[C@H](CO)NCc1nc(N2CCc3cc(Cl)ccc3C2)ccc1F` [Example 101, (2R)-2-({[6-(6-chloro-3,4-dihydroisoquinolin-2(1H)-yl)-3-fluoropyridin-2-yl]methyl}amino)-3-methylbutan-1-ol], the pIC50 was 6.30.
Turning to `CC(C)[C@H](CO)NCc1nc(N2CCc3c(cccc3C(F)(F)F)C2)ccc1F` [Example 102, (2R)-2-[({3-fluoro-6-[5-(trifluoromethyl)-3,4-dihydroisoquinolin-2(1H)-yl]-pyridin-2-yl}methyl)amino]-3-methylbutan-1-ol], the pIC50 was 6.46.
On to `CC(C)[C@H](CO)NCc1nc(N2CCc3ccc(C(F)(F)F)cc3C2)ccc1F` [Example 103, (2R)-2-[({3-fluoro-6-[7-(trifluoromethyl)-3,4-dihydroisoquinolin-2(1H)-yl]-pyridin-2-yl}methyl)amino]-3-methylbutan-1-ol], for which the pIC50 was 6.59.
For `CC(C)[C@@H](NCc1nc(-c2ccc(C(F)(F)F)cc2)ccc1F)C(C)(C)O` [Example 105, (3R)-3-[({3-fluoro-6-[4-(trifluoromethyl)phenyl]pyridin-2-yl}methyl)amino]-2,4-dimethylpentan-2-ol], the pIC50 was 5.56.
As for `CC(C)[C@@H](NCc1nc(-c2ccc(C(F)(F)F)nc2)ccc1F)C(C)(C)O` [Example 106, (3R)-3-({[5-fluoro-6′-(trifluoromethyl)-2,3′-bipyridin-6-yl]methyl}amino)-2,4-dimethylpentan-2-ol], the pIC50 is 5.90.
As to `CC(C)[C@@H](NCc1nc(-c2ccc(C(F)(F)F)cc2)ccc1F)C(C)O` (stereo partly drawn) [Example 107, (3R)-3-[({3-fluoro-6-[4-(trifluoromethyl)phenyl]pyridin-2-yl}methyl)amino]-4-methylpentan-2-ol], the pIC50 was 6.15.
For `CC(C)[C@@H](NCc1nc(-c2ccc(C(F)(F)F)nc2)ccc1F)C(C)O` (stereo partly drawn) [Example 108, (3R)-3-({[5-fluoro-6′-(trifluoromethyl)-2,3′-bipyridin-6-yl]methyl}amino)-4-methylpentan-2-ol], the pIC50 was 6.27.
On to `CC(C)[C@H](CO)NCc1ccc(F)c(-c2ccc(C(F)(F)F)nc2)n1` [Example 109, (2R)-2-({[3-fluoro-6′-(trifluoromethyl)-2,3′-bipyridin-6-yl]methyl}amino)-3-methylbutan-1-ol], for which the pIC50 is 5.44.
Regarding `CC(C)[C@H](CO)NCc1nc(-c2ccc(C(F)(F)F)nc2)ccc1Cl` [Example 110, (2R)-2-({[5-chloro-6′-(trifluoromethyl)-2,3′-bipyridin-6-yl]methyl}amino)-3-methylbutan-1-ol], the pIC50 is 6.20.
For `Cc1ccc(-c2ccc(C(F)(F)F)nc2)nc1CN[C@@H](CO)C(C)C` [Example 111, (2R)-3-methyl-2-({[5-methyl-6′-(trifluoromethyl)-2,3′-bipyridin-6-yl]methyl}amino)butan-1-ol], the pIC50 is 5.97.
As to `COc1ccc(-c2ccc(C(F)(F)F)nc2)nc1CN[C@@H](CO)C(C)C` [Example 112, (2R)-2-({[5-methoxy-6′-(trifluoromethyl)-2,3′-bipyridin-6-yl]methyl}amino)-3-methylbutan-1-ol], the pIC50 is 4.82.
For `CC(C)[C@H](CO)NCc1nc(-c2cnc(C(F)(F)F)nc2)ccc1F` [Example 113, (2R)-2-[({3-fluoro-6-[2-(trifluoromethyl)pyrimidin-5-yl]pyridin-2-yl}methyl)amino]-3-methylbutan-1-ol], the pIC50 is 5.58.
On to `CC(C)[C@H](CO)NCc1nc(-c2cnc(OCC(F)(F)F)nc2)ccc1F` [Example 114, (2R)-2-[({3-fluoro-6-[2-(2,2,2-trifluoroethoxy)pyrimidin-5-yl]pyridin-2-yl}methyl)amino]-3-methylbutan-1-ol], for which the pIC50 was 5.63.
In the case of `CC[C@@H](NCc1nc(-c2ccc(C(F)(F)F)nc2)ccc1F)C(C)O` (stereo partly drawn) [Example 115, (3R)-3-({[5-fluoro-6′-(trifluoromethyl)-2,3′-bipyridin-6-yl]methyl}amino)pentan-2-ol], the pIC50 was 6.29.
On to `CC(C)[C@@H](NCc1nc(-c2ccc(C(F)(F)F)cc2)ccc1F)C(N)=O` [Example 116, (R)-2-((3-fluoro-6-(4-(trifluoromethyl)phenyl)pyridin-2-yl)methylamino)-3-methylbutanamide], for which the pIC50 was < 4.70.
Turning to `CC(C)[C@@H](NCc1nc(-c2ccc(C(F)(F)F)nc2)ccc1F)C(N)=O` [Example 117, (R)-2-((5-fluoro-6′-(trifluoromethyl)-2,3′-bipyridin-6-yl)methylamino)-3-methylbutanamide], the pIC50 was < 4.70.
As for `CC(C)[C@H](CO)NCc1cc(C(F)(F)F)cc(-c2ccc(C(F)(F)F)nc2)n1` [Example 118, (2R)-2-({[4,6′-bis(trifluoromethyl)-2,3′-bipyridin-6-yl]methyl}amino)-3-methylbutan-1-ol], the pIC50 was < 4.70.
As for `CC(C)[C@H](NCc1nc(-c2ccc(C(F)(F)F)nc2)ccc1F)C(N)=O` [Example 119, (S)-2-((5-fluoro-6′-(trifluoromethyl)-2,3′-bipyridin-6-yl)methylamino)-3-methylbutanamide], the pIC50 is < 4.70.
Consider `C[C@@H](O)[C@H](NCc1nc(-c2ccc(C(F)(F)F)nc2)ccc1F)C(N)=O` [Example 120, (2S,3R)-2-((5-fluoro-6′-(trifluoromethyl)-2,3′-bipyridin-6-yl)methylamino)-3-hydroxybutanamide], for which the pIC50 is < 4.70.
For the compound `C[C@@H](O)[C@@H](CO)NCc1nc(-c2ccc(C(F)(F)F)nc2)ccc1F` [Example 121, (2R,3R)-2-({[5-fluoro-6′-(trifluoromethyl)-2,3′-bipyridin-6-yl]methyl}amino)butane-1,3-diol], the pIC50 is 5.21.
As for `O[C@H]1CCCC[C@@H]1NCc1nc(-c2ccc(C(F)(F)F)nc2)ccc1F` [Example 122, (1S,2S)-2-({[5-fluoro-6′-(trifluoromethyl)-2,3′-bipyridin-6-yl]methyl}amino)cyclohexanol], the pIC50 was 5.40.
In the case of `O[C@@H]1CCCC[C@@H]1NCc1nc(-c2ccc(C(F)(F)F)nc2)ccc1F` [Example 123, (1R,2S)-2-({[5-fluoro-6′-(trifluoromethyl)-2,3′-bipyridin-6-yl]methyl}amino)cyclohexanol], the pIC50 is 5.07.
As to `C=C(c1ccccc1)c1ccc(F)c(CN[C@@H](CO)C(C)C)n1` [Example 124, (2R)-2-({[3-fluoro-6-(1-phenylethenyl)pyridin-2-yl]methyl}amino)-3-methylbutan-1-ol], the pIC50 is 6.04.
With `C=C(c1ccc(F)cc1)c1ccc(F)c(CN[C@@H](CO)C(C)C)n1` [Example 125, (2R)-2-[({3-fluoro-6-[1-(4-fluorophenyl)ethenyl]pyridin-2-yl}methyl)amino]-3-methylbutan-1-ol], the pIC50 is 5.79.
On to `CC(C)[C@H](CO)NCc1nc(C2=CCCCC2)ccc1F` [Example 126, (2R)-2-({[6-(cyclohex-1-en-1-yl)-3-fluoropyridin-2-yl]methyl}amino)-3-methylbutan-1-ol], for which the pIC50 is 6.13.
Consider `CC(c1ccccc1)c1ccc(F)c(CN[C@@H](CO)C(C)C)n1` (stereo partly drawn) [Example 127, (2R)-2-({[3-fluoro-6-(1-phenylethyl)pyridin-2-yl]methyl}amino)-3-methylbutan-1-ol], for which the pIC50 is 5.84.
As to `CC(c1ccc(F)cc1)c1ccc(F)c(CN[C@@H](CO)C(C)C)n1` (stereo partly drawn) [Example 128, (2R)-2-[({3-fluoro-6-[1-(4-fluorophenyl)ethyl]pyridin-2-yl}methyl)amino]-3-methylbutan-1-ol], the pIC50 is 6.32.
Take `C[C@@H](O)[C@H](NCc1nc(-c2ccc(C(F)(F)F)nc2)ccc1F)C(=O)Nc1ccc2ccccc2c1` [Example 130, N^2-{[5-fluoro-6′-(trifluoromethyl)-2,3′-bipyridin-6-yl]methyl}-N-naphthalen-2-yl-L-threoninamide]: the pIC50 is 5.59.
With `CC(C)[C@H](CO)NCc1nc(-c2ccc(C(F)(F)F)cc2)ncc1F` [Example 131, (2R)-2-[({5-fluoro-2-[4-(trifluoromethyl)phenyl]pyrimidin-4-yl}methyl)amino]-3-methylbutan-1-ol], the pIC50 is 6.34.
Consider `OCC1(NCc2ccnc(-c3ccc(C(F)(F)F)cc3)n2)CCC1` [Example 132, {1-[({2-[4-(trifluoromethyl)phenyl]pyrimidin-4-yl}methyl)amino]cyclobutyl}methanol], for which the pIC50 is < 4.70.
As for `OCC1(NCc2ccnc(-c3ccc(C(F)(F)F)cc3)n2)CCCC1` [Example 133, {1-[({2-[4-(trifluoromethyl)phenyl]pyrimidin-4-yl}methyl)amino]cyclopentyl}methanol], the pIC50 was 5.03.
As to `OCC1(NCc2ccnc(-c3ccc(C(F)(F)F)cc3)n2)CCCCC1` [Example 134, {1-[({2-[4-(trifluoromethyl)phenyl]pyrimidin-4-yl}methyl)amino]cyclohexyl}methanol], the pIC50 was 4.96.
Next, `OCC1(NCc2ccnc(-c3ccc(C(F)(F)F)cc3)n2)CC1` [Example 135, {1-[({2-[4-(trifluoromethyl)phenyl]pyrimidin-4-yl}methyl)amino]cyclopropyl}methanol]: < 4.70; `CC(C)(CO)NCc1ccnc(-c2ccc(C(F)(F)F)cc2)n1` [Example 136, 2-methyl-2-[({2-[4-(trifluoromethyl)phenyl]pyrimidin-4-yl}methyl)amino]propan-1-ol]: < 4.70.
`C[C@H](CO)NCc1ccnc(-c2ccc(C(F)(F)F)cc2)n1` [Example 137, (2R)-2-[({2-[4-(trifluoromethyl)phenyl]pyrimidin-4-yl}methyl)amino]propan-1-ol]: the pIC50 is 5.11.
As to `CC[C@H](CO)NCc1ccnc(-c2ccc(C(F)(F)F)cc2)n1` [Example 138, (2R)-2-[({2-[4-(trifluoromethyl)phenyl]pyrimidin-4-yl}methyl)amino]butan-1-ol], the pIC50 is 5.52.

Broadly, the pIC50 is −log10 of the IC50, conventionally taken in molar units.
